Measurements taken from US8188143B2, “Pharmaceutical composition useful as acetylcholinesterase inhibitors” (Council of Scientific and Industrial Research, priority 2006, dated 2012).
“Also recorded” adds a separate entry of the source. Where two headings read alike, the source gives them in different places.

Columns and labels:
[1] = target: T1, Acetylcholinesterase (AChE) (Rattus norvegicus, UniProt P37136); test: Acetylcholinesterase (AChE) assay in brain (in vitro), Ellman method; format: biochemical
T1 construct: Aliquots of this supernatant was diluted in the ratio of 1:10 and used as a source of enzyme for the assay; from tissue; host or cells: whole brain of adult male SD rats; 100,000 x g supernatant of a 10% homogenate with Triton X-100
Description: Acetylcholinesterase (AChE) Assay in Brain (In Vitro)
The study was conducted in adult SD male rats (200-250 g). The rats were perfused under mild ether anesthesia through heart with ice cooled normal saline (0.9% NaCl) to reduce blood-borne cholinesterase from the brain. After perfusion the whole brain was taken out. A 10% (w/v) homogenate of brain was prepared first by homogenizing in an Ultra-Turrax T25 homogenizer at a speed of 9500 rpm thrice giving intervals for few seconds in between the runs, with sodium phosphate buffer (30 mmol/lit, pH 7.0). Sodium phosphate buffer was taken in a volume half to the final volume required for 10% homogenate.
1% Triton X-100 (1% w/v in 30 mmol/lit. sodium phosphate buffer, pH 7.0) is then added in a volume to make the final volume for 10% homogenate, slowly while stirring the homogenate on ice. The homogenate was centrifuged at 100,000×g at 4° C. in a Beckman Ultracentrifuge (LE 80) using a fixed angle rotor (80 Ti) for 60 min. Supernatant was collected and stored at 4° C. Aliquots of this supernatant was diluted in the ratio of 1:10 and used as a source of enzyme for the assay.
The assay of AChE was performed according to method described by Ellman et al. A kinetic profile of the enzyme activity was studied spectrophotometrically at 412 nm at an interval of 15 s. The assay for each sample was run in duplicate and each experiment was performed thrice. The specific activity of AChE is expressed in μmoles/min/mg of protein. The test substance (dissolved in DMSO) was incubated with enzyme source in concentration of 100 μg/1 ml of reaction mixture for 30 min at 37° C. prior to obtain kinetic profile of AChE activity. The AChE inhibitory activity was calculated on the basis of % decrease change from control values.
Protein was estimated in the brain samples by modified Lowry's method. Bovine serum albumin (BSA) was used as standard in the concentration of 1 mg/ml. was estimated in the range of 0.01-0.1 mg/ml. […]

[2] = tested on: Scopolamine induced deficit in passive avoidance test in mice; test: Single trial passive avoidance test, scopolamine induced deficit (in vivo); conditions: for In Vivo (passive avoidance test, significance of TLT increase): scopolamine induced deficit, oral for 3 days; for In Vivo (passive avoidance test, significance of TLT increase) / effectiveness in passive avoidance test (in vivo), in words: mice; for TLT on 2nd trial as compared to 1st trial after scopolamine: mice pretreated po x 3 days (100 mg/kg FIG. 1a; 50 mg/kg FIG. 1b), scopolamine 5 min prior to 1st trial; for effectiveness in passive avoidance test (in vivo), in words: scopolamine induced memory deficit
Description: Single trial passive avoidance is widely used as experimental test to assess learning memory functions in rodents. Scopolamine induced impairment in passive avoidance (in vivo) and inhibition of acetylcholinesterase (in vitro) in rodents are commonly employed and screening test to predict potential of an acetylcholinesterase inhibitor as cognitive enhancer (anti-dementic) drug.
Passive Avoidance Test (In Vivo):
The study was conducted in adult Swiss male mice of 3-4 months (wt. 20-25 g) were kept in standard housing condition with 12 h light and dark cycle. The food and water were available ad libitum.
The mice were subjected to single trial passive avoidance test as described by Brioni.
The passive avoidance test was studied by a computerized shuttle box (Columbus Instruments, Ohio, USA) provided with a software program PACS 30. The shuttle box is comprised of two compartments. An automated door was used to isolate the compartments. After an exploration period of 30 s for acclimatization the animal was subjected to a trial of 270 seconds. Each mouse was placed in the bright compartment and on transfer into the dark compartment it was given an electric shock (0.5 mA for 5 s) through floor grid. The transfer of mice from the bright to dark compartment was recorded as transfer latency time (TLT) in seconds. TLT was recorded in control and treated groups (1st Trial, acquisition) and then after 24 h (2nd Trial, retention). An increase in the TLT on 2nd Trial (retention) as compared to 1st Trial (acquisition) was taken as the criterion for successful learning and memory (cognitive activity).
Scopolamine Induced Deficit (Dementia)
Scopolamine, a muscarinic antagonist known to produce impairment in cognitive functions (dementia) in human as well as in experimental animals, was used to produce deficit (no significant increase on 2nd trial) in passive avoidance learning. Scopolamine was administered 5 min prior to 1st trial. Reversal of scopolamine induced deficit i.e. significant increase in 2nd trial by test substance indicates potential anti-dementia activity. […].
The test substance Columbianetin was administered orally in dose of 100 m/kg (1% aqueous suspension in gum acacia) for 3 days. The treated animals were subjected to 1st trial after 60 min of 3rd dose of test substance. Scopolamine was administered 5 min prior to 1st trial in test group.
The control group received 1 ml/kg of vehicle (1% aqueous suspension in gum acacia) orally for 3 days. Among the control mice half (n=5) received scopolamine 5 min prior to 1st trial (Control—dementia) and the remaining half were subjected to passive avoidance test (Control—trained).
Level of p value<0.05 indicates statistically significant difference.
Mean values and standard error (S.E.) of mean were calculated for TLT and specific activity of AChE in the different regions of brain samples of each group. The significance of difference between the values of AChE activity and TLT of two groups was determined by one-way ANOVA test that followed by Dunnett's test.

[3] = tested on: Scopolamine induced deficit in passive avoidance test in mice; test: as above; conditions: po + scopolamine, % increase in TLT of 2nd trial from TLT of 1st trial
[4] = 0.5 h; 100 μg/1 ml of reaction mixture, incubated 30 min at 37° C., rat brain enzyme source; read-out: In Vitro %) (AChE inhibitory activity, % decrease change from control)

T1 sequence (P37136 32-614): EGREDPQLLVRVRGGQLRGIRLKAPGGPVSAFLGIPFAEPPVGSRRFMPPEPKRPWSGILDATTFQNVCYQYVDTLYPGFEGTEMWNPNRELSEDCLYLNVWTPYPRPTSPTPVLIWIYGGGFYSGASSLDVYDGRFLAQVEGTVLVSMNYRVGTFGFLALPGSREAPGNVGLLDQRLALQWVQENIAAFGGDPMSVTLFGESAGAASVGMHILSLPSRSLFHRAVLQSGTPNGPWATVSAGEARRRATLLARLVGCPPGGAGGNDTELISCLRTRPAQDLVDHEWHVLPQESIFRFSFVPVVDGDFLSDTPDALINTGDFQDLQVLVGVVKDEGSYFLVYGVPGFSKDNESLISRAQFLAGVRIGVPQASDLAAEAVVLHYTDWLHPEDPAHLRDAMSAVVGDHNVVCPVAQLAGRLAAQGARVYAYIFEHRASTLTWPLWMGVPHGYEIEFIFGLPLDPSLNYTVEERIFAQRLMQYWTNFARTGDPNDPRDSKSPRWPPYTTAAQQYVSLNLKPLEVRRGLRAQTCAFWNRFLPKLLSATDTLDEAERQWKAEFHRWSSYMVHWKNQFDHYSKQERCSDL

Row | Structure (SMILES) | inhibition at 100 µg/mL [1, 4] [%] | In Vivo (passive avoidance test, significance of TLT increase) [2] | further results
1 | Cc1cc(=O)oc2c(OCc3ccccc3)c(OCc3ccccc3)ccc12 [4-Methyl-7,8-dibenzyloxycoumarin] | 24.1 | No significant activity | –
2 | CC(=O)Oc1ccc2c(C)cc(=O)oc2c1 [4-Methyl-7-acetyloxycoumarin] | 23.9 | Significant activity (P < 0.01) | TLT on 2nd trial as compared to 1st trial after scopolamine [2]: significant increase in TLT on 2nd trial
3 | COc1cc2c(cc1OC)C(=O)C(CC1CCN(Cc3ccccc3)CC1)C2 (centres unmarked) [Donepezil, reference compound] | – | – | % Memory retention ([3]; Standard drug Donepezil 10 mg/kg): 288%
4 | CC(C)=CCc1cc2ccc(=O)oc2cc1O [7-Hydroxy-6-prenylcoumarin] | – | No significant activity | inhibition at 100 µg/mL ([1]; 0.5 h, read-out: In Vitro %) (AChE inhibitory activity, % decrease change from control)): 42.2%
5 | CC1(C)C=Cc2c(ccc3ccc(=O)oc23)O1 [Seselin] | – | No significant activity | –
6 | COc1ccc2ccc(=O)oc2c1 [7-Methoxycoumarin] | 25.2 | High significant activity | TLT on 2nd trial as compared to 1st trial after scopolamine [2]: significant increase in TLT on 2nd trial; effectiveness in passive avoidance test (in vivo), in words [2]: most effective; % Memory retention ([3]; AP20am samples 50 mg/kg): 295%
7 | Cc1cc(=O)oc2c(O)c(O)ccc12 [4-Methyl-7,8-dihydroxycoumarin] | 14.1 | No significant activity | –
8 | CC(=O)Oc1ccc2ccc(=O)oc2c1 [7-Acetyloxycoumarin] | 39.1 | High significant activity | TLT on 2nd trial as compared to 1st trial after scopolamine [2]: significant increase in TLT on 2nd trial; effectiveness in passive avoidance test (in vivo), in words [2]: most effective; also recorded: effective; % Memory retention ([3]; AP20am samples 50 mg/kg): 321%
9 | Cc1cc(=O)oc2cc(O)ccc12 [4-Methyl-7-hydroxycoumarin] | 17.4 | High significant activity | TLT on 2nd trial as compared to 1st trial after scopolamine [2]: significant increase in TLT on 2nd trial; effectiveness in passive avoidance test (in vivo), in words [2]: most effective; % Memory retention ([3]; AP20am samples 50 mg/kg): 376%
10 | CC1(C)CCc2cc3ccc(=O)oc3cc2O1 [Dihydroxanthyletin] | 37.8 | No significant activity | –
11 | C=CCOc1ccc2ccc(=O)oc2c1 [7-Allyloxycoumarin] | – | Significant activity (P < 0.05) | TLT on 2nd trial as compared to 1st trial after scopolamine [2]: significant increase in TLT on 2nd trial
12 | COc1ccc2c(C)cc(=O)oc2c1 [4-Methyl-7-methoxycoumarin] | 48.9 | No significant activity | effectiveness in passive avoidance test (in vivo), in words [2]: effective
13 | C#CC(C)(C)c1ccc2ccc(=O)oc2c1 [7-Dimethylpropargylcoumarin] | – | No significant activity | –
14 | O=c1ccc2ccc(OCc3ccccc3)cc2o1 [7-Benzyloxycoumarin] | – | Significant activity | TLT on 2nd trial as compared to 1st trial after scopolamine [2]: significant increase in TLT on 2nd trial
15 | COc1ccc2c(C)cc(=O)oc2c1OC [4-Methyl-7,8-dimethoxycoumarin] | 14.2 | No significant activity | –
16 | CC(C)=CCc1c(O)ccc2ccc(=O)oc12 [7-Hydroxy-8-prenylcoumarin] | – | No significant activity | –
17 | CC(=O)Oc1ccc2c(C)cc(=O)oc2c1OC(C)=O [4-Methyl-7,8-diacetyloxycoumarin] | 24 | No significant activity | –
18 | O=c1ccc2ccc(O)cc2o1 [7-Hydroxycoumarin] | – | No significant activity | –
19 | CC(C)=CCOc1ccc2ccc(=O)oc2c1 [7-Prenyloxycoumarin] | – | No significant activity | –
20 | CC(C)(O)[C@@H]1Cc2c(ccc3ccc(=O)oc23)O1 [Columbianetin] | 13.9 | No significant activity | –
21 | CC(C)(O)[C@@H]1Cc2cc3ccc(=O)oc3cc2O1 (racemic) [(±) Marmesin] | – | Significant activity (P < 0.01) | In Vitro %) (AChE inhibitory activity, % decrease change from control) ([1]; 100 μg/1 ml of reaction mixture, incubated 30 min at 37° C., rat brain enzyme source): 23.91%
